Data set [1] in a line: refractive index (Na D-line) (dimensionless). The note with it: 298.15 K; 101.33 kPa; Liquid; refractometer.
The conditions of data set [2]: 298.15 K; 101.33 kPa; Liquid; Vibrating tube method.
The nature of data set [3]: xn = mol fraction of the nth substance listed. The following applies: 298.15 K, 101 kPa, Liquid, Vibrating tube method.

SMILES strings stand for the structures. ± gives the expanded uncertainty stated by the source.

As a reminder, the refractive index is the speed of light in vacuum divided by its phase velocity in the sample. A word on the mass density: it is mass per unit of volume. Take `CCOS(=O)(=O)[O-].CC[n+]1cccc(C)c1` [1-ethyl-3-methylpyridinium ethylsulfate]: the refractive index in data set [1] turned out to be 1.50591 ± 0.00024. The mass density in data set [2] is recorded as 1219.61 ± 0.42 kg/m3.

For the compound `CCc1ccccc1` [ethylbenzene], the refractive index in data set [1] stood at 1.49304 ± 0.00014. In addition, the mass density in data set [2] is listed as 862.51 ± 0.11 kg/m3.

Consider `CCc1ccccc1` [ethylbenzene] + CCCCCC, for which the mass density in data set [3] (x2 = 0) was found to be 862.51 ± 0.11 kg/m3; in data set [3] (x2 = 0.0903), 843.13 ± 0.28 kg/m3; in data set [3] (x2 = 0.1776), 824.35 ± 0.29 kg/m3; in data set [3] (x2 = 0.2675), 805.21 ± 0.29 kg/m3; in data set [3] (x2 = 0.3777), 781.93 ± 0.29 kg/m3; in data set [3] (x2 = 0.4931) it was 757.81 ± 0.3 kg/m3. For the same compound, the mass density in data set [3] (x2 = 0.5929) is 737.22 ± 0.31 kg/m3; in data set [3] (x2 = 0.6947), 716.43 ± 0.32 kg/m3; in data set [3] (x2 = 0.7984), 695.45 ± 0.33 kg/m3; in data set [3] (x2 = 0.8942), 676.28 ± 0.34 kg/m3.

With `CCCCCC` [hexane], the refractive index in data set [1] was determined as 1.37234 ± 0.00024. Besides, in data set [2], the mass density stood at 655.19 ± 0.26 kg/m3.

Turning to `CCCCCC` [hexane] + CCc1ccccc1, the mass density in data set [3] (x1 = 1) is 655.19 ± 0.25 kg/m3.

`CCCCCC` [hexane] + Cc1ccccc1: the mass density in data set [3] (x1 = 0.083) was determined as 841.73 ± 0.31 kg/m3; in data set [3] (x1 = 0.1713), 820.75 ± 0.3 kg/m3; in data set [3] (x1 = 0.298), 791.72 ± 0.3 kg/m3; in data set [3] (x1 = 0.396) it was 770.3 ± 0.3 kg/m3; in data set [3] (x1 = 0.5011), 748.44 ± 0.3 kg/m3; in data set [3] (x1 = 0.5949), 729.53 ± 0.3 kg/m3. Also, the mass density in data set [3] (x1 = 0.6973) is 709.61 ± 0.3 kg/m3; in data set [3] (x1 = 0.7961) it was 691.1 ± 0.31 kg/m3; in data set [3] (x1 = 0.8946), 673.45 ± 0.32 kg/m3; in data set [3] (x1 = 1), 655.19 ± 0.25 kg/m3.

With `Cc1ccccc1` [toluene], the refractive index in data set [1] is recorded as 1.49399 ± 0.00014. In addition, in data set [2], the mass density came to 862.17 ± 0.11 kg/m3.

Regarding `Cc1ccccc1` [toluene] + CCCCCC, in data set [3] (x2 = 0), the mass density is given as 862.17 ± 0.11 kg/m3.

Values taken from the NIST ThermoML archive (doi:10.1021/je900557u).
